Results from ChEMBL document CHEMBL3045386, “Flavonoids as lead compounds modulating the enzyme targets in Alzheimers disease” (Med Chem Res, 2013).

Experiments:
Cholinesterase = Cholinesterase (Homo sapiens, UniProt P06276); experiment: Inhibition of BuChE (unknown origin)
Acetylcholinesterase = Acetylcholinesterase (Homo sapiens, UniProt P22303); experiment: Inhibition of AChE (unknown origin)
Beta-secretase 1 = Beta-secretase 1 (Homo sapiens, UniProt P56817); experiment: Inhibition of BACE1 (unknown origin)
[1] = Inhibition of NADPH oxidase in Homo sapiens (human) HUVEC cells; format: cell-based
[2] = biological target: Glycogen synthase kinase-3 beta (Homo sapiens, UniProt P49841); experiment: Inhibition of Homo sapiens (human) recombinant GSK3beta after 30 min by Kinase-Glo assay
Sequence of Glycogen synthase kinase-3 beta (P49841 whole entry): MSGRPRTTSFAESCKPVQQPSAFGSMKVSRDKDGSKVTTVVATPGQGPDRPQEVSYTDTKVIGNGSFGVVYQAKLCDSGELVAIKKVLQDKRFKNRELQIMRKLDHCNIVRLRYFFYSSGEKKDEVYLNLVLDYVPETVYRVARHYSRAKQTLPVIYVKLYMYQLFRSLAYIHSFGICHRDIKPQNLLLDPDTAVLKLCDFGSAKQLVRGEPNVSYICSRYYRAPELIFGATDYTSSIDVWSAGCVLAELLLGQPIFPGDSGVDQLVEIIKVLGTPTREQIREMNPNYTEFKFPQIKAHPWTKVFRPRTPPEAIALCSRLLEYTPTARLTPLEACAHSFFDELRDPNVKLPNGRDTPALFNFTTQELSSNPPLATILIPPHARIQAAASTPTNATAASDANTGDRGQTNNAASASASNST

Sequence of Beta-secretase 1 (P56817 whole entry): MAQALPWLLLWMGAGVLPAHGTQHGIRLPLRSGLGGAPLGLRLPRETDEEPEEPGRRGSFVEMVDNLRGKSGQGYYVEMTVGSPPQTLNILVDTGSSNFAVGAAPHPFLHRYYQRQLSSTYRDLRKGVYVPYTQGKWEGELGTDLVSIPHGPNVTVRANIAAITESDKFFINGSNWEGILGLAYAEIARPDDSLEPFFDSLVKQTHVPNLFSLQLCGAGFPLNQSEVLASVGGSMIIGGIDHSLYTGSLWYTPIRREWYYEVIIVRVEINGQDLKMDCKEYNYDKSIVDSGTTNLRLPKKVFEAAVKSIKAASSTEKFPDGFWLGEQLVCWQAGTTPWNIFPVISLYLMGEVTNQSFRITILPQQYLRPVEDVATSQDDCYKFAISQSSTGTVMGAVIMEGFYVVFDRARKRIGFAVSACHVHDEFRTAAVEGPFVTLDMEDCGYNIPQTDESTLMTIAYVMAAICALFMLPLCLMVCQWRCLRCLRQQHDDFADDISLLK
Sequence of Acetylcholinesterase (P22303 whole entry): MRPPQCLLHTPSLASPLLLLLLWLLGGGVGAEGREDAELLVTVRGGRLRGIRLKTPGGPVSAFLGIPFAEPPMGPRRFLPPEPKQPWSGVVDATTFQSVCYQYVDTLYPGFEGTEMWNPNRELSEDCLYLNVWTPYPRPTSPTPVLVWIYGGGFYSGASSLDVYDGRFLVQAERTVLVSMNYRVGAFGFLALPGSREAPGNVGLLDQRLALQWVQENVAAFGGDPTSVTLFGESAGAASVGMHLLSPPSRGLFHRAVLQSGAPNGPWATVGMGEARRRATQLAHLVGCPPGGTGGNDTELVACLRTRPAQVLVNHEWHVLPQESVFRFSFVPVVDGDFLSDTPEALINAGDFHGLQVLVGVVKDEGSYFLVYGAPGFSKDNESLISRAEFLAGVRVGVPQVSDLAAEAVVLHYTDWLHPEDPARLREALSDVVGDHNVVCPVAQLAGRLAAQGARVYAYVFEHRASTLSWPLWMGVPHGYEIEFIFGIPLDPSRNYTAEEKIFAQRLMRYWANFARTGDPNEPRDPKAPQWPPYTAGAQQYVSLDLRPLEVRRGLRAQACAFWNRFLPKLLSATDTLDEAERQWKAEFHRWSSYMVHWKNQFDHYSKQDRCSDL
Sequence of Cholinesterase (P06276 whole entry): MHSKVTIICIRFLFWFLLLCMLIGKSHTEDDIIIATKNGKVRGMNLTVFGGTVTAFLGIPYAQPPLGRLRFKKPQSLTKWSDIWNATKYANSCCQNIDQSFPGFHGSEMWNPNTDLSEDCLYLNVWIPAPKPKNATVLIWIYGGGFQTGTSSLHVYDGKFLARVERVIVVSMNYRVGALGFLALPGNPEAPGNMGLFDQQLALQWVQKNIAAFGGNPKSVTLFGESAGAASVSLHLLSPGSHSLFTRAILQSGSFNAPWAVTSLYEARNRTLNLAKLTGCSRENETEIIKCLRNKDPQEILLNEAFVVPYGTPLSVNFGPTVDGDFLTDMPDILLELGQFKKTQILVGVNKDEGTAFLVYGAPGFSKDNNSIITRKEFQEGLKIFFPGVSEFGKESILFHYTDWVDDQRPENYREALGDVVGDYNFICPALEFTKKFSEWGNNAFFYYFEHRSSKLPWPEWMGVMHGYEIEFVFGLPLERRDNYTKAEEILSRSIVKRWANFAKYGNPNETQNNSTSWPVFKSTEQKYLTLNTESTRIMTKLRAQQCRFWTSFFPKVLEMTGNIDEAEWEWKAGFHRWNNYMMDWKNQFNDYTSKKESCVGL

SMILES: CC(C)=CC1Oc2cc(O)ccc2-c2oc3c4c(cc(O)c3c(=O)c21)OC(C)(C)C=C4 (configuration not stated) [CYCLOMORUSIN]
- IC50 (Cholinesterase): 1.7 µM
- Ki (Acetylcholinesterase): 3.1 µM

SMILES: O=c1c(O)c(-c2ccc(O)cc2O)oc2cc(O)cc(O)c12 [MORIN]
- IC50 (Beta-secretase 1): 21.7 µM

SMILES: CC(C)=CCC/C(C)=C/Cc1cc(-c2cc(=O)c3c(O)cc(O)cc3o2)c(O)cc1O
- IC50 (Cholinesterase): 16.2 µM
- IC50 (Acetylcholinesterase): 16.2 µM
- Ki (Acetylcholinesterase): 3.1 µM

SMILES: O=C1c2c(O)cc(O)cc2O[C@H](c2ccc(O)c(O)c2)[C@H]1O [(+)-TAXIFOLIN]
- IC50 [1]: 12 µM

SMILES: COc1ccc([C@@H]2CC(=O)c3c(O)cc(O)cc3O2)cc1O [HESPERETIN]
- IC50 [2]: 26.9 µM

SMILES: COc1cc2occ(-c3ccc(N4CCCC4)cc3)c(=O)c2cc1OC
- IC50 (Acetylcholinesterase): 1.63 µM

SMILES: O=c1cc(-c2ccc(O)c(O)c2)oc2cc(O)cc(O)c12 [LUTEOLIN]
- IC50 [2]: 1.5 µM

SMILES: O=c1c(O)c(-c2cc(O)c(O)c(O)c2)oc2cc(O)cc(O)c12 [MYRICETIN]
- IC50 (Beta-secretase 1): 2.8 µM
- IC50 (Acetylcholinesterase): 0.012 µM

SMILES: COc1cc([C@H]2Oc3cc(O)cc(O)c3C[C@H]2O)ccc1O [3'-O-METHYL EPICATECHIN]
- IC50 [1]: 7.9 µM

SMILES: OCCc1ccc(O)cc1 [TYROSOL]
- IC50 [1]: 7.5 µM

SMILES: COc1ccc(-c2cc(=O)c3c(O)cc(O)cc3o2)cc1O [DIOSMETIN]
- IC50 [1]: 7.6 µM

SMILES: CC(C)=CCc1c(-c2ccc(O)cc2O)oc2c(CC=C(C)C)c(O)cc(O)c2c1=O [KUWANON C]
- IC50 (Cholinesterase): 1.7 µM
- Ki (Acetylcholinesterase): 3.1 µM

SMILES: C[C@@H]1O[C@@H](OC[C@H]2O[C@@H](Oc3c(-c4ccc(O)c(O)c4)oc4cc(O)cc(O)c4c3=O)[C@H](O)[C@@H](O)[C@@H]2O)[C@H](O)[C@H](O)[C@H]1O [RUTIN]
- IC50 (Acetylcholinesterase): 0.012 µM

SMILES: COc1cc(O)c(-c2cc(=O)c3c(O)cc(O)cc3o2)cc1C/C=C(\C)CCC=C(C)C
- IC50 (Cholinesterase): 11 µM
- Ki (Cholinesterase): 1.74 µM
- IC50 (Acetylcholinesterase): 11 µM
- Ki (Acetylcholinesterase): 3.1 µM

SMILES: O=c1c(O)c(-c2ccc(O)c(O)c2)oc2cc(O)cc(O)c12 [QUERCETIN]
- IC50 [1]: > 100 µM
- IC50 (Cholinesterase): 421 µM
- IC50 [2]: 2 µM
- IC50 (Acetylcholinesterase): 354 µM

SMILES: CC(C)=CCc1c(-c2ccc(O)cc2O)oc2c3c(cc(O)c2c1=O)OC(C)(C)C=C3 [MORUSIN]
- IC50 (Cholinesterase): 1.7 µM
- Ki (Acetylcholinesterase): 3.1 µM

SMILES: COc1cc2occ(-c3ccc(OC4CCN(Cc5ccccc5)CC4)cc3)c(=O)c2cc1OC
- IC50 (Acetylcholinesterase): 0.093 µM

SMILES: O=c1cc(-c2ccc(O)cc2)oc2cc(O)cc(O)c12 [APIGENIN]
- IC50 [2]: 1.9 µM
- IC50 (Acetylcholinesterase): 0.012 µM

SMILES: C[C@@H]1O[C@@H](O[C@H]2[C@H](Oc3cc(O)c4c(c3)O[C@H](c3ccc(O)cc3)CC4=O)O[C@H](CO)[C@@H](O)[C@@H]2O)[C@H](O)[C@H](O)[C@H]1O [NARINGIN]
- IC50 [2]: 100 µM

SMILES: O=C1C[C@@H](c2ccc(O)cc2)Oc2cc(O)cc(O)c21 [NARINGENIN]
- IC50 [2]: 45.7 µM

SMILES: Oc1cc(O)c2c(c1)O[C@H](c1cc(O)c(O)c(O)c1)[C@H](O)C2 [EPIGALLOCATECHIN]
- IC50 [1]: 8 µM

SMILES: Oc1cc(O)c2c(c1)O[C@H](c1ccc(O)c(O)c1)[C@H](O)[C@H]2c1c(O)cc(O)c2c1O[C@H](c1ccc(O)c(O)c1)[C@H](O)C2 [PROCYANIDIN B2]
- IC50 [1]: 3.8 µM

SMILES: Oc1cc(O)c2c(c1)O[C@H](c1ccc(O)c(O)c1)[C@H](O)C2 [(-)-EPICATECHIN]
- IC50 [1]: > 100 µM

SMILES: CC1(C)C=Cc2c(cc(O)c3c(=O)c4c(oc23)-c2ccc(O)cc2OC(C(C)(C)O)C4)O1 (configuration not stated) [NEOCYCLOMORUSIN]
- IC50 (Cholinesterase): 1.7 µM
- Ki (Acetylcholinesterase): 3.1 µM

SMILES: O=c1c(O)c(-c2ccccc2)oc2cc(O)cc(O)c12 [GALANGIN]
- IC50 (Acetylcholinesterase): 0.012 µM

SMILES: O=c1c(O)c(-c2ccc(O)c(O)c2)oc2cc(O)ccc12 [FISETIN]
- IC50 (Acetylcholinesterase): 0.012 µM

SMILES: COc1cc(-c2oc3cc(O)cc(O)c3c(=O)c2O)ccc1O [ISORHAMNETIN]
- IC50 [1]: 2.8 µM

SMILES: O=c1c(OC2O[C@H](CO)[C@H](O)[C@H](O)[C@H]2O)c(-c2ccc(O)cc2)oc2cc(O)cc(O)c12 (stereo partly drawn) [KAEMPFEROL 3-O-D-GALACTOSIDE]
- IC50 (Acetylcholinesterase): 0.012 µM

SMILES: CC(C)=CCC/C(C)=C/Cc1cc(C2CC(=O)c3c(O)cc(O)cc3O2)c(O)cc1O (configuration not stated) [KUWANON E]
- IC50 (Cholinesterase): 1.7 µM
- Ki (Acetylcholinesterase): 3.1 µM

SMILES: COc1cc(O)c(C2CC(=O)c3c(O)cc(O)cc3O2)cc1C/C=C(\C)CCC=C(C)C (configuration not stated) [KUWANONU]
- IC50 (Cholinesterase): 1.7 µM
- Ki (Acetylcholinesterase): 3.1 µM

SMILES: COc1ccc([C@@H]2CC(=O)c3c(O)cc(O[C@@H]4O[C@H](CO[C@@H]5O[C@@H](C)[C@H](O)[C@@H](O)[C@H]5O)[C@@H](O)[C@H](O)[C@H]4O)cc3O2)cc1O [HESPERIDIN]
- IC50 [2]: 100 µM

SMILES: O=c1c(O)c(-c2ccc(O)cc2)oc2cc(O)cc(O)c12 [KAEMPFEROL]
- IC50 [1]: 10 µM
- IC50 (Beta-secretase 1): 14.7 µM

SMILES: CC(C)(O)CCc1c(-c2ccc(O)cc2O)oc2c3c(cc(O)c2c1=O)OC(C)(C)C=C3 [MORUSINOL]
- IC50 (Cholinesterase): 1.7 µM
- Ki (Acetylcholinesterase): 3.1 µM

SMILES: OCCc1ccc(O)c(O)c1 [HYDROXYTYROSOL]
- IC50 [1]: 7.5 µM
